2 molecules from patent publication US8604048B2, “Pyridocarbazole type compounds and applications thereof” (Centre National de la Recherche Scientifique, priority 2009, dated 2013) can be followed below.

One assay has as its system purified tubulin. Briefly: In vitro assembly of purified tubulin. It is filed as biochemical. The conditions noted are these: tubulin 1 mg/ml; Compound 1 at 25, 50, 100 μM. As to the method:
FIG. 5 compares the effects of the Compound 1 of the invention with the effect of paclitaxel (Taxol®) on the assembly of the tubulin purified in vitro. Purified tubulin (1 mg/ml) is incubated in PEM buffer in the presence of GTP (1 mM), MgCl2 (5 mM), DAPI (10 μM) at 37° C. The effect of Compound 1 of the invention at various concentrations (×25 μM, ⊚ 50 μM and Δ 100 μM) is compared to that of paclitaxel (Taxol®) (▪) and of DMSO ( ? );
In order to know whether Compound 1 of the invention exerts its stabilizing effect via a direct action on tubulin, such as paclitaxel does, or by means an effector, its effect on the in vitro assembly of tubulin in microtubules has been analyzed. The first experiments were carried out on purified tubulin (1 mg/ml).

Assay [1] concerns actin network of HeLa cells. In words: Stability of the actin network to a depolymerization induced by latrunculin B. The conditions noted are these: HeLa cells, confocal microscope. It is filed as cell-based, Human. As to the method: 7. a step of analysis of the effect of the compound to be tested on the actin network, via incubation of HeLa cells with the compound to be tested. […] When the actin network is stabilized, the latrunculin-induced depolymerization of the actin network is limited.
The cells are grown on glass coverslips and incubated as for the tubulin staining. After elimination of the medium, the cells are washed with warm PBS then fixed, by addition of a solution of PBS/3.7% formaldehyde for 30 minutes at 37° C. The cells are washed with PBS then permeabilized with a solution of PBS/0.2% Triton X100 for 15 minutes at room temperature. After another washing with PBS, the cells are incubated with a solution of PBS/1% BSA for 30 minutes at room temperature. The cells are then incubated with phalloidin (0.165 μM final concentration) labelled with Alexa Fluor® 488 (Molecular Probes, Invitrogen) for 20 minutes at room temperature. The cells are washed a final time with PBS then dehydrated with pure ethanol. Finally, the cells are fixed to slides using a Fluorsave™ mounting solution.
8) Test for the Action on the Actin Cytoskeleton: Protocol for Evaluating, in Cells, the Stability of the Actin Network to a Depolymerization Induced by Latrunculin B
3 days before the experiment, glass coverslips are deposited under sterile conditions in 24-well microplates. In each well, HeLa cells (15 000 cells per well) in the exponential growth phase are seeded in 500 μl of RPMI medium.
PBS (phosphate buffered saline, ref. P4417, Sigma), PBS/1% BSA (bovine serum albumin, Ref. A3059, Sigma), aliquots of 15 ml, stored at −20° C.; PBS/0.2% Triton X100 (Ref. T8787, Sigma); PBS/0.01% Tween® 20 (Ref. P9916, Sigma); PBS/0.3% BSA/0.02% NaN3 (Ref. for the NaN3: 6688, Merck), aliquots of 15 ml stored at −20° C. Phalloidin A488, (Ref. A12379, Invitrogen). L4: rabbit anti-detyrosinated-tubulin polyclonal antibody (cf. Fonrose et al., Cancer Res., […], 67:3371-3378). Anti-rabbit antibody coupled to Cyanine 3 (Ref. 111.165.144, Jackson Laboratories). […]

The subject of another assay is MES-SA DX5 cells. Briefly: Cell growth test (MTT), MES-SA DX5. Type of assay: cell-based. As to conditions: Homo sapiens; MES-SA DX5 (multi-drug resistant, P-glycoprotein), MTT test after 48 h; read-out: IC50 (concentration necessary to inhibit 50% of cell growth). The procedure:
(§1) The cell growth tests are carried out in transparent 96-well microplates (Greiner) after having seeded 100 μl/well of a cell solution having 2·10^5 cells/ml to 5·10^5 cells/ml (depending on the cell lines). After incubating for 24 h at 37° C. with 5% CO2, the culture medium is removed and replaced with solutions of the molecule to be tested at various concentrations. The cells are incubated with these molecules for an additional 48 h at 37° C. with 5% CO2. After elimination of the medium, the cells are washed with blank RPMI (Gibco, Invitrogen) then incubated with 3-(4,5-dimethylthiazol-2-yl)-2,5-diphenyltetrazolium bromide or MTT (0.5 mg/ml final concentration) for 4 h at 37° C. with 5% CO2. MTT (Sigma Aldrich) makes it possible to estimate the viability of the cells by measuring the activity of a mitochondrial enzyme. Indeed, in living cells, mitochondrial dehydrogenases are capable of cleaving the tetrazolium ring, thus leading to the formation of formazan crystals that are insoluble in an aqueous medium. These crystals are dissolved with the addition of a solubilizing solution (isopropanol, 10% Triton X100, 0.1 N HCl). After stirring, the absorbance is measured at 570 nm using the FLUOstar OPTIMA microplate reader. […]
(§2) The viability of the cells was evaluated using an MTT test after 48 h of exposure with various concentrations of molecules (from 100 μM to 0.001 μM). […]
(In general: Formazan colour is commonly taken as a measure of viable cells.)

Another assay concerns MES-SA cells. In words: Cell growth test (MTT), MES-SA. Type of assay: cell-based. The conditions noted are these: Homo sapiens, MTT test after 48 h, read-out: IC50 (concentration necessary to inhibit 50% of cell growth). As to the method:
as §1, §2

In a further assay the test system is HeLa cells. In words: Cell growth test (MTT), HeLa. It is filed as cell-based. The conditions noted are these: Homo sapiens, MTT test after 48 h, read-out: IC50 (concentration necessary to inhibit 50% of cell growth). As to the method: as §1, §2
The next assay deals with 786-O cells. Briefly: Cell growth test (MTT), 786-O. The conditions noted are these: Homo sapiens, 786-0, MTT test after 48 h, read-out: IC50 (concentration necessary to inhibit 50% of cell growth). It is filed as cell-based. The procedure:
as §1, §2

The subject of another assay is NCI-H460 cells. Briefly: Cell growth test (MTT), NCI-H460. The conditions noted are these: Homo sapiens; NCI-H460, MTT test after 48 h; read-out: IC50 (concentration necessary to inhibit 50% of cell growth). It is filed as cell-based. As to the method:
as §1, §2

Each structure is given as a SMILES string. pIC50: −log10 of the molar value.

Regarding `CC(=O)O[C@H]1C(=O)[C@@]2(C)[C@H]([C@H](OC(=O)c3ccccc3)[C@]3(O)C[C@H](OC(=O)[C@H](O)[C@@H](NC(=O)c4ccccc4)c4ccccc4)C(C)=C1C3(C)C)[C@]1(OC(C)=O)CO[C@@H]1C[C@@H]2O` [paclitaxel, reference compound], the “Assembly of purified tubulin in vitro” value with purified tubulin was “can induce the assembly of tubulin”. Besides, in assay [1], the “Protection of the actin network from depolymerization by latrunculin B” value is listed as “Neither DMSO nor paclitaxel (Taxol®) are able to induce such a protective effect”.
For the molecule `Cc1c2cc[nH]c(=O)c2c(C)c2c1[nH]c1ccc(OCc3ccccc3)cc12` [Compound 3, 9-benzyloxy-5,11-dimethyl-2H,6H-pyrido[4,3-b]carbazol-1-one], the pIC50 in the assay on MES-SA DX5 cells was 4.86; with MES-SA cells, 4.47; in the assay with HeLa cells it was 5.52; with 786-O cells it was 5.48; in the assay on NCI-H460 cells it was 5.82.
